Experimental findings from PMC4280362 (Biochimie, 2014) are described below.

Assay [1] has as its target T1, Isovaleryl-CoA dehydrogenase (IVD) (Homo sapiens, UniProt P26440).
T1 sequence (P26440 33-426): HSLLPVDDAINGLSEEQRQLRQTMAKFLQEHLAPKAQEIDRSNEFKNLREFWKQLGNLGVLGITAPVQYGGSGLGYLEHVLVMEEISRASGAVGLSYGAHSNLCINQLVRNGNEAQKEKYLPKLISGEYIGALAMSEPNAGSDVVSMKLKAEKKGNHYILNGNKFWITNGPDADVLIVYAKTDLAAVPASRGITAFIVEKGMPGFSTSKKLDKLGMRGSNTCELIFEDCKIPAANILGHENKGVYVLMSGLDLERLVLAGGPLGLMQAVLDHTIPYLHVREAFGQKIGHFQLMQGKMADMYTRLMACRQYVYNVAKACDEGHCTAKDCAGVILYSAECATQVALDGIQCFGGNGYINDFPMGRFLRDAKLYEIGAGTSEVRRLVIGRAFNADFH
Briefly: anaerobic UV/visible spectral titration. Type of assay: binding.

In assay [2] the target is T2, recombinant human isovaleryl-CoA dehydrogenase, CoA-persulfide-free (human, UniProt P26440 33-426).
T2 sequence: T1 sequence (P26440 33-426)
The experiment in a line: competitive inhibition of enzyme activity.

For `CC(C)CC(=O)SCCNC(=O)CCNC(=O)[C@H](O)C(C)(C)COP(=O)(O)OP(=O)(O)OC[C@H]1O[C@@H](n2cnc3c(N)ncnc32)[C@H](O)[C@@H]1OP(=O)(O)O` [isovaleryl-CoA], the dissociation constant Kd (as a rule, a measure of binding affinity in units of concentration) in assay [1] amounted to 0.54 µM.

B1: ETF docking peptide, ETF βArg191-βLys202 (peptide)
peptide: RYATLPNIMKAK
With B1, the inhibition constant (Ki) – broadly, the dissociation constant of the complex between target and ligand, obtained from inhibition or displacement – in assay [2] came out at 1500 µM.
